{"source": "patent US9505794B2", "about": "“Ruthenium (II) complexes, preparation and uses thereof” (priority 2014, dated 2016)", "key": {"[1]": {"system": "calf-thymus DNA (CT-DNA)", "assay": "Isothermal titration calorimetry (ITC) binding to CT-DNA", "settings": "for ΔG / ΔH / −TΔS: Tris-HCl buffer pH=7.4, 25° C; for N [bp]: one set of site binding model", "procedure": "Relative binding affinity of complexes 1, 2, and 3 towards calf-thymus DNA (CT-DNA) were evaluated using isothermal titration calorimetry (ITC) (FIG. 20). Association constants and thermodynamic parameters (Table 4) clearly reveal that the binding affinities for complexes 1 and 2\nITC experiments were performed with the Microcal iTC200. CT-DNA (0.1 mmol) and complexes 1 (5 mmol), 2 (5 mmol) and 3 (5 mmol) were used for these experiments. All titrations were conducted in Tris-HCl buffer (5 mmol Tris and 25 mmol NaCl), pH=7.4 at 25° C. In each titration CT-DNA was loaded into the cell and 1 or 2 or 3 were taken into the syringe. Aliquot of 2 μL of compounds were injected into the cell containing DNA. In each experiment, the raw isotherms were corrected for heat of dilution by subtracting the isotherms representing the compounds injected into the Tris-HCl buffer. The resulting isotherms were fitted with the one set of site binding model provided with Microcal iTC200. (Refer FIG. 21)"}, "[2]": {"assay": "Partition coefficient (log P), shake-flask method, n-octanol/water", "settings": "for LogP: values of Table 2; for log P: values of text and unnumbered table", "procedure": "Partition coefficients (log P) for these three complexes were evaluated by shake-flask method and these were correlated to the lipophilicity of respective complexes.\nn-Octanol saturated water and water saturated octanol was obtained using Millipore water stirred with n-octanol for 24 h before the two layers were separated by centrifugation (3000 rpm, 5 min). The chloride salts of complex 1 and 2 were dissolved in n-octanol saturated water giving concentrations ranging from 0.5 to 3.0 mmol. This was then mixed with water saturated n-octanol in the ratio of 1:1 (v/v). Resulting solvent mixtures were vertexed for 30 min at room temperature, and then were subjected to centrifugation (3000 rpm, 5 min) to get two distinct separate layers. Samples from each layer were obtained using a fine-gauge needle and the absorbance of respective complex in each phase determined using UV-Vis spectroscopy."}, "[3]": {"system": "MCF-7 cell line", "assay": "Cellular uptake and quantification of Ru by MP-AES", "format": "cell-based", "settings": "MCF-7, 50 μM, 24 h, 37° C", "procedure": "Cellular accumulation studies for complexes 1, 2, and 3 were conducted on the MCF-7 cell line. Briefly, 2.5×10^5-1×10^6 cells were seeded on a petridish; the metal complexes were then added to give final concentrations of 50 μM and allowed a further 24 h of drug exposure at 37° C. After this time, cells were treated with trypsin, counted using haemocytometer, and cells collected were digested overnight in concentrated nitric acid (73%) at 60° C.; Samples were made up to exactly 10 mL using deionized water and the amount of ruthenium taken up by the cells was estimated by MP-AES (Microwave Plasma Atomic Emission Spectroscopy), using an Agilent Technologies instrument (Model No: 4100 MP-AES). The solvent used for all MP-AES experiments was double deionized water (DDW). The concentrations used for the calibration curve were in all cases 0, 5, 7.5, 10 ppm. The isotope detected was ^101Ru; readings were made in duplicate (N2 gas mode)."}, "[4]": {"system": "live MCF-7 cells", "assay": "CLSM imaging of live cells, co-staining with ER-Tracker Green", "format": "cell-based", "settings": "live MCF-7, 50 μM, 37° C", "procedure": "In the light of the negligible toxicity towards MCF-7 cells, the application of the above complexes as potential as imaging agents was explored in live MCF-7 cells by incubating the cells separately with 50 μM of 1, 2, and 3 at 37° C."}, "[5]": {"system": "PFA fixed MCF-7 cells", "assay": "CLSM imaging of fixed cells, co-staining with DAPI", "format": "cell-based", "settings": "fixed MCF-7, excitation 442 nm, emission 620 nm", "procedure": "In another embodiment, co-staining experiments were performed with DAPI, a commonly used commercial nuclear staining agent.\nTo ensure that DAPI had no influence in internalization of the complexes 1 and 2, identical experiments with fixed MCF-7 cells in absence of DAPI were performed (FIG. 22 c) and a distinct red emission were observed from the nucleus. Luminescence intensity profile plots confirmed that the emission was actually from the nucleus.\nMCF-7 and HEK293T cells were cultured in DMEM respectively supplemented with 10% FBS and penicillin/streptomycin. Cell lines were maintained at 37° C. in an atmosphere of 5% CO2 and routinely sub-cultured. For CLSM, cell cultures were grown on 6 well plate with coverslips, after 24 hrs of incubation the cells were treated with solutions of 1 or 2 (20 μM,) in serum containing media and incubated for 2 h. After incubation media was removed and cells were washed with 1×PBS buffer and fixed them using paraformaldehyde and stained for confocal microscopy. Nuclear staining was performed by using DAPI. Olympus Fluoview was used to observe the compound staining Compound was excited at 443 nm and emission was detected at 620 nm wavelength.\nDAPI was excited by using a 405 nm diode laser and emission detected with a 420-480 nm long-pass band-filter. (FIG. 14, 15, 16, 17)"}, "[6]": {"system": "nuclear DNA of fixed MCF-7 cells", "assay": "DNase I / RNase A digest experiments (CLSM)", "format": "cell-based", "settings": "fixed MCF-7 cells pre-treated with DNase I", "procedure": "Further, in order to check the preferential binding of these two reagents to nuclear DNA, deoxyribonuclease (DNase I) and ribonuclease (RNase A) digest experiments were carried out. DNase I is an enzyme that catalyzes the hydrolytic cleavage of phosphodiester linkages in the DNA and RNase A is a type of nuclease that catalyzes the degradation of RNA into smaller components. DAPI was used for control experiments."}, "[7]": {"assay": "Photostability under continuous irradiation by confocal microscopy", "format": "physicochemical", "settings": "for reduction of fluorescence intensity upon irradiation: fixed MCF-7, exposure at 442 nm for 300 sec", "description": "In yet another embodiment, photostability of these two complexes 1 & 2 compared with that for DAPI dye by using confocal microscopy."}, "[8]": {"assay": "Fluorescence quantum yield and luminescence lifetime (TCSPC) in water", "format": "physicochemical", "settings": "pure aqueous medium; for τ (luminescence lifetime): excitation 443 nm; for Φf (fluorescence quantum yield): reference Ru(bpy)3Cl2", "description": "UV-Vis spectra were obtained by using a Cary 500 scan UV-Vis-NIR spectrometer. Room temperature emission spectrum was obtained using an Edinburgh instrument Xe-900 spectro fluorometer. The fluorescence quantum yields, Φf were estimated by using equation 1 in water medium using the integrated emission intensity of Ru(bpy)3Cl2 (Φf=0.042 in H2O at RT) as a reference. (FIG. 20)\nLuminescent lifetimes were obtained using a Horiba TCSPC (Time Correlated Single Photon Counting) system exciting at 443 nm. 10,000 counts were collected for each lifetime measurement and all measurements were performed in triplicate using DAS software to confirm results. The calculation of the luminescent lifetimes was performed by fitting an exponential decay function to each decay plot to extract the lifetime information using DAS6 fluorescence decay analysis software (FIG. 2)."}, "[9]": {"assay": "Water solubility"}}, "data": [{"compound": "{bis-(2,2′-bpy)-(5-fluoro-1-((4′-methyl-[2,2′-bipyridin]-4-yl)methyl)pyrimidine-2,4(1H,3H)-dione)}ruthenium(II) dichloride [Complex 1]", "values": [{"measurement": "ΔG", "setting": "[1]", "result": "−6.68 ± 0.41", "unit": "Kcal/M^−1"}, {"measurement": "ΔH", "setting": "[1]", "result": "−35.5 ± 0.41", "unit": "Kcal/M^−1"}, {"measurement": "N [bp]", "setting": "[1]", "result": "0.61 ± 0.0", "unit": "bp"}, {"measurement": "LogP", "setting": "[2]", "result": "−0.99 ± 0.05"}, {"measurement": "log P", "setting": "[2]", "result": "−0.85"}, {"measurement": "Ru accumulation", "setting": "[3]", "result": 1.5, "unit": "ppm/10^6 cells"}, {"measurement": "intracellular localisation of emission in live cells", "setting": "[4]", "result": "exactly superimposed with those for ER-Tracker™ Green"}, {"measurement": "staining of fixed cells", "setting": "[5]", "result": "as efficient as DAPI in staining the nucleus"}, {"measurement": "intracellular fluorescence intensity from the nucleus after DNase I pre-treatment", "setting": "[6]", "result": "significantly reduced"}, {"measurement": "reduction of fluorescence intensity upon irradiation", "setting": "[7]", "result": "~20", "unit": "%"}, {"measurement": "τ (luminescence lifetime)", "setting": "[8]", "result": 336, "unit": "ns"}, {"measurement": "Φf (fluorescence quantum yield)", "setting": "[8]", "result": 0.048}, {"measurement": "water solubility", "setting": "[9]", "result": "highly water soluble"}]}, {"compound": "Cc1ccnc(-c2cc(C)ccn2)c1.F[P-](F)(F)(F)(F)F.F[P-](F)(F)(F)(F)F.[Ru+2].c1ccc(-c2ccccn2)nc1.c1ccc(-c2ccccn2)nc1", "note": "[Complex 3, [Ru(bpy)2(L3)]2+, reference compound]", "values": [{"measurement": "ΔG", "setting": "[1]", "result": "−4.52 ± 0.25", "unit": "Kcal/M^−1"}, {"measurement": "ΔH", "setting": "[1]", "result": "0.51 ± 0.25", "unit": "Kcal/M^−1"}, {"measurement": "−TΔS", "setting": "[1]", "result": 5.03, "unit": "Kcal/M^−1l"}, {"measurement": "N [bp]", "setting": "[1]", "result": "0.354 ± 0.14", "unit": "bp"}, {"measurement": "log P", "setting": "[2]", "result": "−1.1"}, {"measurement": "Ru accumulation", "setting": "[3]", "result": 0.8, "unit": "ppm/10^6 cells"}, {"measurement": "extent of cellular uptake", "setting": "[4]", "result": "less as compared to the complexes 1 and 2"}, {"measurement": "intracellular localisation of emission in live cells", "setting": "[4]", "result": "did not show any such specificity towards lipid dense regions"}, {"measurement": "staining of fixed cells", "setting": "[5]", "result": "non-specific staining of cellular compartments"}, {"measurement": "τ (luminescence lifetime)", "setting": "[8]", "result": 321, "unit": "ns"}, {"measurement": "Φf (fluorescence quantum yield)", "setting": "[8]", "result": 0.05}]}, {"compound": "{bis-(2,2′-bpy)-(1-((4′-methyl-[2,2′-bipyridin]-4-yl)methyl)pyrimidine-2,4(1H,3H)-dione)}ruthenium(II) dichloride [Complex 2]", "values": [{"measurement": "ΔG", "setting": "[1]", "result": "−6.00 ± 0.02", "unit": "Kcal/M^−1"}, {"measurement": "ΔH", "setting": "[1]", "result": "1.47 ± 0.02", "unit": "Kcal/M^−1"}, {"measurement": "−TΔS", "setting": "[1]", "result": 7.47, "unit": "Kcal/M^−1l"}, {"measurement": "N [bp]", "setting": "[1]", "result": "0.98 ± 0.01", "unit": "bp"}, {"measurement": "LogP", "setting": "[2]", "result": "−1.59 ± 0.09"}, {"measurement": "Ru accumulation", "setting": "[3]", "result": 2.3, "unit": "ppm/10^6 cells"}, {"measurement": "intracellular localisation of emission in live cells", "setting": "[4]", "result": "exactly superimposed with those for ER-Tracker™ Green"}, {"measurement": "staining of fixed cells", "setting": "[5]", "result": "as efficient as DAPI in staining the nucleus"}, {"measurement": "intracellular fluorescence intensity from the nucleus after DNase I pre-treatment", "setting": "[6]", "result": "significantly reduced"}, {"measurement": "reduction of fluorescence intensity upon irradiation", "setting": "[7]", "result": "~20", "unit": "%"}, {"measurement": "τ (luminescence lifetime)", "setting": "[8]", "result": 323, "unit": "ns"}, {"measurement": "Φf (fluorescence quantum yield)", "setting": "[8]", "result": 0.050}, {"measurement": "water solubility", "setting": "[9]", "result": "highly water soluble"}]}, {"compound": "N=C(N)c1ccc(-c2cc3ccc(C(=N)N)cc3[nH]2)cc1", "note": "[DAPI, 4′,6-diamidino-2-phenylindole, reference compound]", "values": [{"measurement": "fluorescence intensity upon continuous irradiation", "setting": "[7]; fixed MCF-7, at 359 nm for 300 sec", "result": "drastically reduced"}]}]}
